Measurements: US20230270148A1, “BITTER BLOCKERS AND RELATED METHODS OF USE” (Conagen Inc., priority 2020, published 2023)

Experiments:
0.25% caffeine solution = assay: Sensory evaluation: bitterness reduction of a caffeine solution; assay type: in vivo; conditions: for Comments: taste and mouth feel comments, dosage per sample; for Estimated % bitterness reduction: one trained sensory evaluator, vs control, dosage (ppm) per sample (20 to 50-100 ppm)
Method: (§1) The bitter blocker candidates listed in Table 1 were prepared into a 1% sample solution with propylene glycol (i.e., 1 g of bitter blocker per 100 ml of propylene glycol) and heated to ensure complete solubilization. […] A trained sensory evaluator was asked to estimate the perceived bitterness reduction against the control, as well as to provide comments on how the addition of the individual sample solution modulated the taste and mouth feel profile of the resulting caffeine solution.

[1] = system: peach-flavored energy drink (caffeine, B vitamins); assay: Sensory evaluation: bitterness reduction of a peach-flavored energy drink; assay type: in vivo; conditions: for Comments: dosage per sample; for Estimated % bitterness reduction: caffeine about 710 mg/l, dosage (ppm) per sample (20 to 50-100 ppm)
Method: as §1, with “The bitterness” for “The bitter”, “glycol” for “glycol (i.e., 1 g of bitter blocker per 100 ml of propylene glycol)”, “resulting peach-flavored energy drink.” for “resulting caffeine solution.”

[2] = system: melted dark chocolate pieces with 100% dark cacao; assay: Sensory evaluation: bitterness reduction of dark chocolate pieces; assay type: in vivo; conditions: dosage 50 or 100 ppm per sample
Method: (§2) The bitterness blocker candidates listed in Table 1 were prepared into a 1% sample solution with propylene glycol and heated to ensure complete solubilization. […] Individually, the respective sample solution was added to melted dark chocolate pieces with 100% dark cacao. A trained sensory evaluator was asked to estimate the perceived bitterness reduction against the control, as well as to provide comments on how the addition of the individual sample solution modulated the taste and mouth feel profile of the resulting melted dark chocolate pieces.

dark roast coffee = assay: Sensory evaluation: bitterness reduction of dark roast coffee; assay type: in vivo; conditions: dosage 50 or 100 ppm per sample; for Estimated % bitterness reduction: caffeine about 740 mg/l
Method: (§3) The bitterness blocker candidates listed in Table 1 were prepared into a 1% sample solution with propylene glycol and heated to ensure complete solubilization. […] A trained sensory evaluator was asked to estimate the perceived bitterness reduction against the control, as well as to provide comments on how the addition of the individual sample solution modulated the taste and mouth feel profile of the resulting dark roast coffee.

[3] = system: cough syrup DELSYM (dextromethorphan HBr); assay: Sensory evaluation: bitterness reduction of cough syrup DELSYM; assay type: in vivo; conditions: dosage 50 or 100 ppm per sample; for Estimated % bitterness reduction: 6000 mg/l of dextromethorphan
Method: as §2, with “a cough syrup sold under the trade name DELSYM®. The bitter-tasting agent contained in the cough syrup were dextromethorphan HBr USP 30 mg (as measured for each 5 ml teaspoon, i.e., 6000 mg/l of dextromethorphan).” for “melted dark chocolate pieces with 100% dark cacao.”, “cough syrup.” for “melted dark chocolate pieces.”

[4] = system: cough syrup ROBITUSSIN DM (dextromethorphan HBr and guaifenesin); assay: Sensory evaluation: bitterness reduction of cough syrup ROBITUSSIN DM; assay type: in vivo; conditions: dosage 50 or 100 ppm per sample; for Estimated % bitterness reduction: 21000 mg/l of bitter tastants
Method: as §2, with “a cough syrup sold under the trade name ROBITUSSIN® DM. The bitter-tasting agents contained in the cough syrup were dextromethorphan HBr USP 20 mg and guaifenesin USP 400 mg (as measured for each 20 ml serving, or 21000 mg/l of bitter tastants in total).” for “melted dark chocolate pieces with 100% dark cacao.”, “cough syrup.” for “melted dark chocolate pieces.”

[5] = system: full spectrum CBD hemp oil nanoemulsion; assay: Sensory evaluation: bitterness reduction of full spectrum CBD hemp oil; assay type: in vivo; conditions: dosage 50 or 100 ppm per sample
Method: as §3, with “solubilization. […] A full spectrum CBD hemp oil was emulsified into a water-soluble nanoemulsion first, to which was added the respective sample solution.” for “solubilization.”, “oil nanoemulsion.” for “dark roast coffee.”

CBD isolate nanoemulsion = assay: Sensory evaluation: bitterness reduction of CBD isolate; assay type: in vivo; conditions: dosage 50 or 100 ppm per sample
Method: as §3, with “solubilization. […] A CBD isolate was emulsified into a water-soluble nanoemulsion first, to which was added the respective sample solution.” for “solubilization.”, “nanoemulsion.” for “dark roast coffee.”

THC nanoemulsion = assay: Sensory evaluation: bitterness reduction of THC; assay type: in vivo; conditions: dosage 50 or 100 ppm per sample; for Comments: THC nanoemulsion; for Estimated % bitterness reduction: THC nanoemulsion (10 mg THC per serving)
Method: The bitterness blocker candidates listed in Table 1 were prepared into a 1% sample solution with propylene glycol and heated to ensure complete solubilization. […] THC was first emulsified into a water-soluble nanoemulsion (10 mg THC per serving), to which was added the respective sample solution. A trained sensory evaluator was asked to estimate the perceived bitterness reduction against the control, as well as to provide comments on how the addition of the individual sample solution modulated the taste and mouth feel profile of the resulting nanoemulsion.

caffeine in water = assay: Two-alternative forced choice (2AFC) difference test; assay type: in vivo
Method: The bitter blocker candidates BB09, BB11, and BB13 were subject to a two-alternative forced choice (2AFC) difference test wherein panelists were presented Control Caffeine solutions and Test solutions containing caffeine and one of three bitterness blocker candidates (BB09, BB 11, or BB13). Panelists were asked to evaluate the two samples and answer the question, “which one is more hitter?”
BB09 and BB11 were tested first. Three ounces of control (caffeine in water), BB09 in caffeine water, and BB11 in caffeine water were presented at room temperature in separate plastic souffle cups labeled with 3-digit codes. Ten sensory trained panelists evaluated each sample in three repetitions with a 10 minute break between repetitions. Panelists then completed the 2AFC. Data was collected on EveQuestion and analyzed on XLSTAT. Testing was conducted at Sensations Research according to FEMA guidelines.
BB13 was tested separately. Two ounces of control (caffeine in water), BB13 in caffeine water were presented at room temperature in separate plastic souffle cups labeled with 3-digit codes. Fifteen participants evaluated each sample in two repetitions with a 10 minute break between repetitions for a total of thirty evaluations as per the FEMA guidelines. Panelists then completed the 2AFC to identify the more bitter sample. Data was collected and analyzed on Compusense.

[6] = system: bitter-responsive human taste bud tissue-derived cells (hTBEC); assay: ATP secretion detection assay (luminescence); assay type: cell-based
Method: The bitter blocker candidates were further characterized using bitter-responsive human taste bud tissue-derived cells (hTBEC) platforms and bioassays. Bitter-responsive hTBECs were treated with hitter blocker candidates and various bitter agonists to assess the efficacy of each bitter blocker candidate in reducing the bitterness of each of the various bitter agonists.
One industry standard bitter agonist was used as a control (L-Praziquantel), and five bitter blocker controls were used (Senomyx BB68, STX-001, sodium gluconate, eridictyol, and homoeridictyol).
BB09, BB11, and BB13 were first tested at various concentrations in combination with 100 μM Dextromethorphan-HBr.
Next, bitter blocker concentration ranges were narrowed (100 μM-1,000 μM) and compared to a fixed concentration of stimulus. […] BB13 was evaluated further by real time ATP secretion detection in pooled hTBEC 66 cells treated with 300 μM Theobromine.
Each culture was treated with BB09, BB11, BB13, STX001, or Senomyx BB68, as well as either Dextromethorphan-HBr at 1000 μM (FIGS. 18A-18C), Theobromine at 1,000 μM (FIGS. 19A-19C), Rebaudioside A at 1 mM (FIGS. 20A-20C), or Caffeine at 3 mM (FIGS. 21A-21C).

| Structure (SMILES) | Comments (0.25% caffeine solution) | Comments [1] | Comments [2] | Comments (dark roast coffee) | Comments [3] | Comments [5] | Comments (CBD isolate nanoemulsion) | Comments (THC nanoemulsion) | other results |
| --- | --- | --- | --- | --- | --- | --- | --- | --- | --- |
| COc1ccc(-c2cc(=O)c3c(O)cc(O)cc3o2)cc1 [BB01, Acacetin] | Some bitterness blocking on sides |  |  |  |  |  |  |  |  |
| COc1cc([C@@H]2CC(=O)c3c(O)cc(O)cc3O2)ccc1O [BB02, Homoeriodictyol] |  | Some blocking on sides and tip | Some blocking on sides and tip | Some blocking on sides and tip | Some blocking on sides and tip | Some blocking on sides and tip | Some blocking on sides and tip | Some blocking on sides and tip | Comments [4]: Some blocking on sides and tip |
| O=c1c(O)c(-c2ccc(O)cc2)oc2cc(O)cc(O)c12 [BB03, Kaempferol] | Some bitterness blocking on sides |  |  |  |  |  |  |  |  |
| O=C1c2c(O)cc(O)cc2O[C@H](c2ccc(O)c(O)c2)[C@H]1O [BB04, Dihydroquercetin] | Some bitterness blocking on sides |  |  |  |  |  |  |  |  |
| O=C1c2c(O)cc(O)cc2O[C@H](c2ccc(O)cc2)[C@H]1O [BB06, Dihydrokaempferol] | Some bitterness blocking on sides |  |  |  |  |  |  |  |  |
| O=C1C[C@@H](c2ccc(O)c(O)c2)Oc2cc(O)cc(O)c21 [BB07, Eriodictyol] | Some bitterness blocking on all parts | Some bitterness blocking on all | Some bitterness blocking on all | Some bitterness blocking on all | Some bitterness blocking on all | Some bitterness blocking on all | Some bitterness blocking on all | Some bitterness blocking on all | Estimated % bitterness reduction (0.25% caffeine solution): 50%; Estimated % bitterness reduction [1]: 50%; Estimated % bitterness reduction [2]: 50%; Estimated % bitterness reduction (dark roast coffee): 50%; Estimated % bitterness reduction [3]: 30%; Estimated % bitterness reduction [4]: 30%; Comments [4]: Some bitterness blocking on all; Estimated % bitterness reduction [5]: 30%; Estimated % bitterness reduction (CBD isolate nanoemulsion): 30%; Estimated % bitterness reduction (THC nanoemulsion): 30% |
| COc1cc([C@@H]2CC(=O)c3c(O)cc(O[C@@H]4O[C@H](CO)[C@@H](O)[C@H](O)[C@H]4O)cc3O2)ccc1O [BB09, Homoeriodictyol 7-O-glucoside] | Good upfront bitterness reduction | Good upfront bitterness | Good bitterness reduction but | Nice upfront bitterness reduction | Covered up a good percentage of | Nice upfront bitterness reduction | Nice upfront bitterness reduction | Nice upfront bitterness reduction | Significant? (caffeine in water; 2AFC, 90% confidence level, which sample is more bitter): Yes,; # Selected Variant (which is more bitter?) (caffeine in water; of 30 responses (10 panelists, 3 evaluations), control caffeine in water vs variant in caffeine water): 10; real time Rebaudioside A-induced ATP secretion ([6]; 1 mM Rebaudioside A, blocker 1,000 μM, pooled hTBEC 56 cultures (FIG. 17)): attenuated; inhibition of the bitter agonists (ATP secretion) ([6]; hTBEC 66, hTBEC 56, hTBEC Donor H, Dextromethorphan-HBr at 1000 μM, Theobromine 1,000 μM, Rebaudioside A 1 mM or Caffeine 3 mM (FIGS. 18-21)): trends of inhibition in most cases |
| O=C1C[C@@H](c2ccc(O[C@@H]3O[C@H](CO)[C@@H](O)[C@H](O)[C@H]3O)c(O)c2)Oc2cc(O)cc(O)c21 [BB12, Eriodictyol 4′-O-glucoside] | Some bitterness blocking on front |  |  |  |  |  |  |  | Estimated % bitterness reduction (0.25% caffeine solution): 30%; Estimated % bitterness reduction [1]: 30%; Estimated % bitterness reduction [2]: 30%; Estimated % bitterness reduction (dark roast coffee): 30%; Estimated % bitterness reduction [3]: 30%; Estimated % bitterness reduction [4]: 30%; Estimated % bitterness reduction [5]: 30%; Estimated % bitterness reduction (CBD isolate nanoemulsion): 30%; Estimated % bitterness reduction (THC nanoemulsion): 30% |
